Reference: patent publication US12065426B2, “Crystalline form of nilotinib hydrochloride, process for its preparation and pharmaceutical composition containing the same” (Laurus Labs Limited, priority 2018, dated 2024)
Like-named read-outs stand apart in the source and are kept apart here.

Key:
[1] = Saturation solubility studies in various mediums; conditions: for solubility: 25 °C, thermodynamic from solid
Experimental: Saturation solubility studies were conducted in various mediums for nilotinib hydrochloride Form L of the present invention and nilotinib hydrochloride monohydrate Form B (U.S. Pat. No. 8,415,363).

[2] = Chemical and polymorphic stability study at different storage conditions (HPLC, XRD); type: physicochemical; design: key to 5-Methyl isomer (Imp-4) / 4-Ethyl analogue (Imp-5) / Any unspecified impurity / Total Impurities / Methyl ester impurity (Imp-2) / Acid impurity (Imp-1): ND: Not detected; BDRL: Below disregard limit
Text: Nilotinib hydrochloride Form L is packed in a transparent Low density polyethylene (LDPE) bag with a strip seal along with nitrogen filling, which is again kept in a second transparent low density polyethylene bag with strip seal. The LDPE bag is kept in to a triple laminated sunlight barrier with heat seal followed by in a high density polyethylene container and well closed.
Alternatively, Nilotinib hydrochloride Form L is packed in a HM LDPE bag in nitrogen atmosphere, fill the bag with nitrogen and seal it with vacuum sealer. Place this bag in another HM LDPE bag, fill with nitrogen, keep one silica gel packet between two bags and seal the bag with vacuum sealer. Place this in a triple laminated sunlight barrier bag, seal the bag with vacuum sealer; and finally kept it in a HDPE container.
The Nilotinib hydrochloride Form L was analysed using High Performance Liquid Chromatography (“HPLC”) with the conditions as tabulated below: […]

[3] = Dynamic vapour sorption (DVS); type: physicochemical
Experimental: Dynamic vapour sorption (DVS) data in the present invention was acquired using TA instruments TA Q5000SA Dynamic vapour sorption analyser with Universal Analysis 2000 software under following parameters; Sample was initially equilibrated at 0% RT for 120 mins; humidity range: 10 to 90%; humidity step size: 10%; Equilibration condition: change in mass less than 0.01% within 5 mins.

[4] = Thermogravimetric analysis (TGA) / loss on drying; type: physicochemical; conditions: for Thermogravimetric (weight loss %): 10° C./minute, RT to 80° C.
Experimental: Thermogravimetry analysis (TGA) data in the present invention was acquired using TA instruments TGA Q500 thermogravimetric analyser with universal Analysis 2000 software using the following conditions; Heating rate: 10° C./min; Temperature range: 28±2° C.-250° C.; Nitrogen flow: 60 mL/minute.

[5] = Variable temperature powder X-ray diffraction (VT-PXRD); type: physicochemical; conditions: 25-300° C., heating rate 10° C./mins
[6] = from table 22 of U.S. Pat. No. 8,415,363, cited from earlier work

Question: For Cc1cn(-c2cc(NC(=O)c3ccc(C)c(Nc4nccc(-c5cccnc5)n4)c3)cc(C(F)(F)F)c2)cn1.Cl [Form L, 4-methyl-N-[3-(4-methyl-1H-imidazol-1-yl)-5-(trifluoromethyl)phenyl]-3-[[4-(3-pyridinyl)-2-pyrimidinyl]amino]-benzamide hydrochloride], which solubility ([1]; 0.01N HCl, simulated gastric fluid) is on record?
Answer: The solubility was 170 µg/mL.

Question: And the solubility ([1]; 0.1N HCl, simulated gastric fluid)?
Answer: Its solubility is 1860 µg/mL.

Question: And the solubility ([1]; ethanol, organic solvent or mixture)?
Answer: The solubility was 16300 µg/mL.

Question: What about the solubility ([1]; isopropanol, organic solvent or mixture) of the same compound?
Answer: Its solubility is 2740 µg/mL.

Question: And the solubility ([1]; phosphate buffer, pH 6.8, aqueous buffer)?
Answer: The solubility was 20 µg/mL.

Question: What about the “Solubility compared to Form B” value ([1]; various mediums) of the same compound?
Answer: The value was “better solubility”.

Question: What about the solubility ([1]; water) of the same compound?
Answer: The solubility was 160 µg/mL.

Question: What about the “4-Ethyl analogue (Imp-5)” value ([2]; 25 ± 2° C./60 ± 5% RH, 2 month) of the same compound?
Answer: The value was “BDRL”.

Question: What about the “5-Methyl isomer (Imp-4)” value ([2]; 25 ± 2° C./60 ± 5% RH, 2 month) of the same compound?
Answer: Its value is “BDRL”.

Question: What about the Any unspecified impurity ([2]; 25 ± 2° C./60 ± 5% RH, 2 month) of the same compound?
Answer: Its Any unspecified impurity is “BDRL”.

Question: What about the Description ([2]; 25 ± 2° C./60 ± 5% RH, 2 month) of the same compound?
Answer: The Description was “Slightly yellow”.

Question: What about the “Solid form by XRD” value ([2]; 25 ± 2° C./60 ± 5% RH, 2 month) of the same compound?
Answer: The value was “Complies”.

Question: What about the “Total Impurities” value ([2]; 25 ± 2° C./60 ± 5% RH, 2 month) of the same compound?
Answer: The value was “BDRL”.

Question: And the “4-Ethyl analogue (Imp-5)” value ([2]; 25 ± 2° C./60 ± 5% RH, Initial)?
Answer: The value was “BDRL”.

Question: What about the Any unspecified impurity ([2]; 25 ± 2° C./60 ± 5% RH, Initial) of the same compound?
Answer: Its Any unspecified impurity is “BDRL”.

Question: What about the Description ([2]; 25 ± 2° C./60 ± 5% RH, Initial) of the same compound?
Answer: Its Description is “Slightly yellow”.

Question: What about the “Solid form by XRD” value ([2]; 25 ± 2° C./60 ± 5% RH, Initial) of the same compound?
Answer: The value was “Complies”.

Question: What about the “Total Impurities” value ([2]; 25 ± 2° C./60 ± 5% RH, Initial) of the same compound?
Answer: The value was “BDRL”.

Question: And the “4-Ethyl analogue (Imp-5)” value ([2]; 40 ± 2° C./75 ± 5% RH, 1 month)?
Answer: Its value is “BDRL”.

Question: And the “5-Methyl isomer (Imp-4)” value ([2]; 40 ± 2° C./75 ± 5% RH, 1 month)?
Answer: The value was “BDRL”.

Question: What about the “Acid impurity (Imp-1)” value ([2]; 40 ± 2° C./75 ± 5% RH, 1 month) of the same compound?
Answer: The value was “BDRL”.

Question: What about the Any unspecified impurity ([2]; 40 ± 2° C./75 ± 5% RH, 1 month) of the same compound?
Answer: The Any unspecified impurity was “BDRL”.

Question: And the Description ([2]; 40 ± 2° C./75 ± 5% RH, 1 month)?
Answer: The Description was “Slightly yellow”.

Question: And the “Methyl ester impurity (Imp-2)” value ([2]; 40 ± 2° C./75 ± 5% RH, 1 month)?
Answer: The value was “BDRL”.

Question: What about the “Solid form by XRD” value ([2]; 40 ± 2° C./75 ± 5% RH, 1 month) of the same compound?
Answer: The value was “Complies”.

Question: What about the “Total Impurities” value ([2]; 40 ± 2° C./75 ± 5% RH, 1 month) of the same compound?
Answer: Its value is “BDRL”.

Question: What about the “4-Ethyl analogue (Imp-5)” value ([2]; 40 ± 2° C./75 ± 5% RH, 2 month) of the same compound?
Answer: The value was “BDRL”.

Question: What about the “5-Methyl isomer (Imp-4)” value ([2]; 40 ± 2° C./75 ± 5% RH, 2 month) of the same compound?
Answer: The value was “BDRL”.

Question: What about the Any unspecified impurity ([2]; 40 ± 2° C./75 ± 5% RH, 2 month) of the same compound?
Answer: The Any unspecified impurity was “BDRL”.

Question: What about the Description ([2]; 40 ± 2° C./75 ± 5% RH, 2 month) of the same compound?
Answer: The Description was “Slightly yellow”.

Question: And the “Solid form by XRD” value ([2]; 40 ± 2° C./75 ± 5% RH, 2 month)?
Answer: Its value is “Complies”.

Question: And the “Total Impurities” value ([2]; 40 ± 2° C./75 ± 5% RH, 2 month)?
Answer: Its value is “BDRL”.

Question: What about the “4-Ethyl analogue (Imp-5)” value ([2]; 40 ± 2° C./75 ± 5% RH, Initial) of the same compound?
Answer: The value was “BDRL”.

Question: What about the Any unspecified impurity ([2]; 40 ± 2° C./75 ± 5% RH, Initial) of the same compound?
Answer: Its Any unspecified impurity is “BDRL”.

Question: And the Description ([2]; 40 ± 2° C./75 ± 5% RH, Initial)?
Answer: The Description was “Slightly yellow”.

Question: What about the “Solid form by XRD” value ([2]; 40 ± 2° C./75 ± 5% RH, Initial) of the same compound?
Answer: Its value is “Complies”.

Question: What about the “Total Impurities” value ([2]; 40 ± 2° C./75 ± 5% RH, Initial) of the same compound?
Answer: Its value is “BDRL”.

Question: What about the “Polymorphic and chemical identity on storage” value ([2]; different storage conditions, at least up to two months) of the same compound?
Answer: The value was “retained the same polymorphic and chemical identity”.

Question: And the “% Weight change” value ([3]; Adsorption, 10 % RH)?
Answer: The value was 0.5405%.

Question: And the “% Weight change” value ([3]; Adsorption, 20 % RH)?
Answer: Its value is 0.7918%.

Question: And the “% Weight change” value ([3]; Adsorption, 30 % RH)?
Answer: Its value is 0.9954%.

Question: What about the “% Weight change” value ([3]; Adsorption, 40 % RH) of the same compound?
Answer: The value was 1.170%.

Question: And the “% Weight change” value ([3]; Adsorption, 50 % RH)?
Answer: The value was 1.350%.

Question: And the “% Weight change” value ([3]; Adsorption, 60 % RH)?
Answer: Its value is 1.544%.

Question: And the “% Weight change” value ([3]; Adsorption, 70 % RH)?
Answer: Its value is 1.904%.

Question: What about the “% Weight change” value ([3]; Adsorption, 80 % RH) of the same compound?
Answer: The value was 2.661%.

Question: What about the “% Weight change” value ([3]; Adsorption, 90 % RH) of the same compound?
Answer: The value was 5.414%.

Question: What about the “% Weight change” value ([3]; Desorption, 10 % RH) of the same compound?
Answer: The value was 1.303%.

Question: And the “% Weight change” value ([3]; Desorption, 20 % RH)?
Answer: Its value is 1.751%.

Question: And the “% Weight change” value ([3]; Desorption, 30 % RH)?
Answer: The value was 2.098%.

Question: What about the “% Weight change” value ([3]; Desorption, 40 % RH) of the same compound?
Answer: Its value is 2.855%.

Question: What about the “% Weight change” value ([3]; Desorption, 50 % RH) of the same compound?
Answer: Its value is 4.190%.

Question: What about the “% Weight change” value ([3]; Desorption, 60 % RH) of the same compound?
Answer: Its value is 4.453%.

Question: And the “% Weight change” value ([3]; Desorption, 70 % RH)?
Answer: The value was 4.875%.

Question: What about the “% Weight change” value ([3]; Desorption, 80 % RH) of the same compound?
Answer: Its value is 5.134%.

Question: And the “% Weight change” value ([3]; Desorption, 90 % RH)?
Answer: The value was 5.414%.

Question: And the Water pick up ([3]; at 80% RH at RT)?
Answer: The Water pick up was “about 2.7%”.

Question: What about the “Maximum absorption of water” value ([3]; at 90% RH) of the same compound?
Answer: Its value is “about 5.4%”.

Question: And the “Difference in water content between absorption and desorption” value ([3]; between 50% and 60% RH at room temperature)?
Answer: Its value is “about 3%”.

Question: And the Hygroscopicity ([3]; from water pick up at 80% RH at RT)?
Answer: Its Hygroscopicity is “moderately hygroscopic”.

Question: And the “Thermogravimetric (weight loss %)” value [4]?
Answer: Its value is 1.6 (RT to 80°) %.

Question: And the Loss on drying ([4]; 30° C.-100° C.)?
Answer: The Loss on drying was 2.3%.

Question: And the Loss on drying ([4]; 100° C.-220° C.)?
Answer: Its Loss on drying is 7.3%.

Question: What about the “Temperature up to which characteristic PXRD is retained” value [5] of the same compound?
Answer: Its value is “about 140 °C”.

Question: With Cc1cn(-c2cc(NC(=O)c3ccc(C)c(Nc4nccc(-c5cccnc5)n4)c3)cc(C(F)(F)F)c2)cn1.Cl.O [Form B, reference compound] as the compound, how does the Saturation solubility ([1]; 0.01N HCl, approximately at 25° C.) read?
Answer: Its Saturation solubility is 0.08 mg/mL.

Question: What about the Saturation solubility ([1]; 0.1N HCl, approximately at 25° C.) of the same compound?
Answer: Its Saturation solubility is 0.94 mg/mL.

Question: And the Saturation solubility ([1]; Ethanol, approximately at 25° C.)?
Answer: Its Saturation solubility is 3.69 mg/mL.

Question: And the Saturation solubility ([1]; Isopropanol, approximately at 25° C.)?
Answer: The Saturation solubility was 1.93 mg/mL.

Question: And the Saturation solubility ([1]; Phosphate buffer, pH 6.8, approximately at 25° C.)?
Answer: Its Saturation solubility is “Below detection”.

Question: What about the Saturation solubility ([1]; Water, approximately at 25° C.) of the same compound?
Answer: Its Saturation solubility is 0.17 mg/mL.

Question: What about the “Thermogravimetric (weight loss %)” value [4] of the same compound?
Answer: Its value is 0.91 (RT to 80° C.) %.

Question: And the Loss on drying ([6]; 30° C.-100° C.)?
Answer: The Loss on drying was 1.00%.

Question: What about the Loss on drying ([6]; 100° C.-220° C.) of the same compound?
Answer: The Loss on drying was 3.02%.
